The values that follow come from PMC3162996 (Journal of natural products, 2011).

Series [1] has as its system transcription factor AP-1. Nature of the series: AP-1 assay. Format: cell-based. Particulars: HEK293T AP-1 β-lactamase reporter; 1 h pre-incubation, then TPA, 18 h.
The conditions of series [2]: Floridian collections of Lyngbya confervoides; ref [6],[7]; cited from earlier work.

Entries after “also recorded” stand apart in the source; their conditions may differ.

As to Grassypeptolide F [compound 1], in series [1], the “inhibitory activity against AP-1 (in words)” value is “moderately active; also recorded: moderate inhibitory activity”.

As for grassypeptolide C [compound 5], the “cytotoxicity (in words)” value in series [2] was “cytotoxic”.

Regarding Grassypeptolide G [compound 2], the “inhibitory activity against AP-1 (in words)” value in series [1] is recorded as “moderately active; also recorded: moderate inhibitory activity”.
